We go through five compounds from US8575091B1, “Amylin analogues and pharmaceutical compositions thereof” (Novo Nordisk A/S, priority 2012, dated 2013).

Numbered stars: 1 amine (or outer) side, 2 acyl side, 3 side chain; on linkers, the order of the positions; unused ones are H or OH. Bridge positions count the residues as written; N and C are the ends. Side chains are listed from the residue outwards. Peptide text beside a SMILES is read from it. * marks the point of attachment. C20 diacid = O=C(O)CCCCCCCCCCCCCCCCCCC(=O)*; γGlu = O=C(O)[C@H](CCC(=O)[*:2])N[*:1]; AEEA = NCCOCCOCC(=O)O

Assay [1] addresses T1, human amylin receptor (amylin 3(a) receptor: human calcitonin receptor + RAMP-3) (Homo sapiens, UniProt O60896+P30988).
T1 construct: expressed in transfected cells
T1 sequence (P30988 25-474): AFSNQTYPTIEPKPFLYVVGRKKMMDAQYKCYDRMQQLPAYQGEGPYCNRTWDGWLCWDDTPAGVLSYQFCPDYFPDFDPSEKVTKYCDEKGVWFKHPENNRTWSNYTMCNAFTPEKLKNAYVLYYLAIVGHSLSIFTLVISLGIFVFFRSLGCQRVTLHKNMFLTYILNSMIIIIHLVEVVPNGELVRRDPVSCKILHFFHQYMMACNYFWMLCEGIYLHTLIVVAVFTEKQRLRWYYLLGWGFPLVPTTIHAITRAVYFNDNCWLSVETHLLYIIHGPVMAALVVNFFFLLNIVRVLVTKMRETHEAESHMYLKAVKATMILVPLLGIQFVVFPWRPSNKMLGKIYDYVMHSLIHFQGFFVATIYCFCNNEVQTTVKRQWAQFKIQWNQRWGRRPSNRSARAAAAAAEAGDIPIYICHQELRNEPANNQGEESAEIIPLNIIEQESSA
T1 sequence (O60896 24-148 partner): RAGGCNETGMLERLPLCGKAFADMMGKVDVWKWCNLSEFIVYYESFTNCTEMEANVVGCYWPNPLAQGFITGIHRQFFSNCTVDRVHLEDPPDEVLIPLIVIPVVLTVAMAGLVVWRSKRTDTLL
The assay is described as follows: Assay (II)a functional assay, human amylin receptor (CRE luciferase, BHK cells). In kind it is cell-based.

For a further assay, the target named is T2, human amylin receptor (Homo sapiens, UniProt O60896+P30988).
T2 construct: expressed in transfected cells
T2 sequence (P30988 25-474): T1 sequence (P30988 25-474)
T2 sequence (O60896 24-148 partner): T1 sequence (O60896 24-148 partner)
The assay is described as follows: Assay (V) binding to the human amylin receptor (SPA, 125I-rat amylin). The conditions noted are these: human binding ratio, included for comparison. An outline of the steps:
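SPA competition binding on membranes from Amylin 3(a)/CRE-luc cells, 35 ng/μL membranes with 0.05 mg/well beads. Buffer 50 mM Hepes pH 7.4, 1 mM CaCl2, 5 mM MgCl2, 0.1% OA, 0.02% Tween20. IC50 from one-site competition fit as affinity measure.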

For the next assay, the target named is T3, rat amylin receptor (Rattus norvegicus, UniProt P32214+Q9JJ73).
T3 construct: expressed in transfected cells; host or cells: BHK tk'ts 13 (transient, FuGENE 6), membranes
T3 sequence (P32214 25-479 isoform P32214-2 limits assumed): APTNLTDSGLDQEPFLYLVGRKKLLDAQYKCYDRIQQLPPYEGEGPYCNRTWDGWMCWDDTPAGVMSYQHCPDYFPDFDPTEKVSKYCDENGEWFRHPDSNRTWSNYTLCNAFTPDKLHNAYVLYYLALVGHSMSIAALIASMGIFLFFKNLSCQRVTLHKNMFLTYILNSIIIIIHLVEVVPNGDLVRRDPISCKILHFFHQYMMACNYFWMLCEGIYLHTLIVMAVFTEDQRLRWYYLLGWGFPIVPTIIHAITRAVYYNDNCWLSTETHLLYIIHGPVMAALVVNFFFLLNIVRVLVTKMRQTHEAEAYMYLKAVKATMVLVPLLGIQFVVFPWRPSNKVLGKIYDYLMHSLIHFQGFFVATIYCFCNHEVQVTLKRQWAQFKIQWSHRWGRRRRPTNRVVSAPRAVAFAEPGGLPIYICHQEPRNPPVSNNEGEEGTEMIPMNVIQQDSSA
T3 sequence (Q9JJ73 23-147 partner): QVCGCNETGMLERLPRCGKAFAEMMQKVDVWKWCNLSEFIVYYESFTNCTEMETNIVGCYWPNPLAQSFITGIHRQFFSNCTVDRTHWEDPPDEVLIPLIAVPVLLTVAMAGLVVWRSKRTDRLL
The assay can be described thus: Assay (VI) binding to the rat amylin receptor. The conditions noted are these: rCTR bind IC50 divided by rAmylin-R bind IC50. How it is done:
Assay (VI)—Determination of the Binding to the Rat Amylin Receptor
The assay was performed as described above (Assay (V)—Determination of binding to the human amylin receptor) with the exception that we used membranes prepared from BHK tk'ts 13 cells that were transiently transfected with the rat calcitonin receptor rat RAMP 3 at an equimolar ratio […]. The BHK tk'ts 13 cells were transiently transfected with rat calcitonin receptor using FuGENE® 6 (Roche), according to the manufacturer's recommendations. Cells were grown in DMEM with 10% FBS and 1% Pen/Strep. Approximately 48 hours after transfection, the cells were harvested and membranes were prepared.

Setting [2] is: Table 6, human functional selectivity (hCTR EC50 / hAmylin-R EC50).

Take `CC[C@H](C)[C@H](NC(=O)[C@@H]1CCCN1C(=O)CNC(=O)[C@H](Cc1ccccc1)NC(=O)[C@H](CC(N)=O)NC(=O)[C@@H]1CCCN1C(=O)[C@H](CO)NC(=O)[C@H](CO)NC(=O)[C@H](Cc1c[nH]cn1)NC(=O)[C@H](CCCNC(=N)N)NC(=O)[C@H](CC(C)C)NC(=O)[C@H](Cc1ccccc1)NC(=O)[C@H](CCC(=O)O)NC(=O)[C@H](C)NC(=O)[C@H](CC(C)C)NC(=O)[C@H](CCCNC(=N)N)NC(=O)[C@H](CCC(N)=O)NC(=O)[C@@H](NC(=O)[C@H](C)NC(=O)[C@@H]1CSSC[C@H](NC(=O)[C@H](CCCCN)NC(=O)CC[C@H](NC(=O)CCCCCCCCCCCCCCCCCCC(=O)O)C(=O)O)C(=O)N[C@@H](CC(N)=O)C(=O)N[C@@H]([C@@H](C)O)C(=O)N[C@@H](C)C(=O)N[C@@H]([C@@H](C)O)C(=O)N1)[C@@H](C)O)C(=O)N[C@@H](CC(C)C)C(=O)N1CCC[C@H]1C(=O)N1CCC[C@H]1C(=O)N[C@H](C(=O)N[C@@H](CC(N)=O)C(=O)N[C@H](C(=O)NCC(=O)N[C@@H](CO)C(=O)N[C@@H](CC(N)=O)C(=O)N[C@H](C(=O)N1CCC[C@H]1C(N)=O)[C@@H](C)O)C(C)C)[C@@H](C)O` [Example 4] ({C20 diacid-γGlu}-KCNTATCATQRLAEFLRHSSPNFGPILPPTNVGSNTP-NH2; disulfide 2-7): the “Ratio hCT/hAmylin funct.” value in assay [1] (setting [2]) and in assay [1] (hCTR funct. EC50 divided by hAmylin-R funct. EC50) was 1.2 throughout. In addition, the “Ratio hCT/hAmylin binding” value at human amylin receptor is listed as 2.1. Besides, at rat amylin receptor, the “Ratio rCT/rAmylin binding” value is reported as 3.1.

Regarding `CC(C)C[C@H](NC(=O)[C@H](CCCNC(=N)N)NC(=O)[C@H](CCC(N)=O)NC(=O)[C@@H](NC(=O)[C@H](C)NC(=O)[C@@H]1CSSC[C@H](NC(=O)[C@H](CCCCN)NC(=O)CC[C@H](NC(=O)CCCCCCCCCCCCCCCCCCC(=O)O)C(=O)O)C(=O)N[C@@H](CC(N)=O)C(=O)N[C@@H]([C@@H](C)O)C(=O)N[C@@H](C)C(=O)N[C@@H]([C@@H](C)O)C(=O)N1)[C@@H](C)O)C(=O)N[C@@H](C)C(=O)N[C@@H](CCC(=O)O)C(=O)N[C@@H](Cc1ccccc1)C(=O)N[C@@H](CC(C)C)C(=O)N[C@@H](CCCNC(=N)N)C(=O)N[C@@H](Cc1c[nH]cn1)C(=O)N[C@@H](CO)C(=O)N[C@@H](CO)C(=O)N1CCC[C@H]1C(=O)N[C@@H](CC(N)=O)C(=O)N[C@@H](Cc1ccccc1)C(=O)NCC(=O)N[C@@H](C)C(=O)N1CCC[C@H]1C(=O)N[C@@H](CC(C)C)C(=O)N[C@@H](CO)C(=O)N[C@@H](CO)C(=O)N[C@H](C(=O)N[C@@H](CC(N)=O)C(=O)N[C@H](C(=O)NCC(=O)N[C@@H](CO)C(=O)N[C@@H](CC(N)=O)C(=O)N[C@H](C(=O)N[C@@H](Cc1ccc(O)cc1)C(N)=O)[C@@H](C)O)C(C)C)[C@@H](C)O` [Example 7] ({C20 diacid-γGlu}-KCNTATCATQRLAEFLRHSSPNFGAPLSSTNVGSNTY-NH2; disulfide 2-7), the “Ratio hCT/hAmylin funct.” value in assay [1] (setting [2]) came out at 4.5; in assay [1] (Table 6i, hCTR funct. EC50 / hAmylin-R funct. EC50), 4.5. In addition, the “Ratio rCT/rAmylin binding” value on rat amylin receptor (Table 7b) and at rat amylin receptor was 42.0 in each case.

As for `CC[C@H](C)[C@H](NC(=O)[C@H](C)NC(=O)CNC(=O)[C@H](Cc1ccccc1)NC(=O)[C@H](CC(N)=O)NC(=O)[C@@H]1CCCN1C(=O)[C@H](CO)NC(=O)[C@H](CO)NC(=O)[C@H](Cc1c[nH]cn1)NC(=O)[C@H](CCCNC(=N)N)NC(=O)[C@H](CC(C)C)NC(=O)[C@H](Cc1ccccc1)NC(=O)[C@H](CCC(=O)O)NC(=O)[C@H](C)NC(=O)[C@H](CC(C)C)NC(=O)[C@H](CCCNC(=N)N)NC(=O)[C@H](CCC(N)=O)NC(=O)[C@@H](NC(=O)[C@H](C)NC(=O)[C@@H]1CSSC[C@H](NC(=O)[C@H](CCCCN)NC(=O)COCCOCCNC(=O)COCCOCCNC(=O)CC[C@H](NC(=O)CCCCCCCCCCCCCCCCCCC(=O)O)C(=O)O)C(=O)N[C@@H](CC(N)=O)C(=O)N[C@@H]([C@@H](C)O)C(=O)N[C@@H](C)C(=O)N[C@@H]([C@@H](C)O)C(=O)N1)[C@@H](C)O)C(=O)N1CCC[C@H]1C(=O)N[C@@H](CO)C(=O)N[C@@H](CO)C(=O)N[C@H](C(=O)N[C@@H](CC(N)=O)C(=O)N[C@H](C(=O)NCC(=O)N[C@@H](CO)C(=O)N[C@@H](CC(N)=O)C(=O)N[C@H](C(=O)N1CCC[C@H]1C(N)=O)[C@@H](C)O)C(C)C)[C@@H](C)O` [Example 20] ({C20 diacid-γGlu-AEEA-AEEA}-KCNTATCATQRLAEFLRHSSPNFGAIPSSTNVGSNTP-NH2; disulfide 2-7), the “Ratio hCT/hAmylin funct.” value in assay [1] (setting [2]) amounted to 3.6. Moreover, the “Ratio hCT/hAmylin binding” value at human amylin receptor is listed as 3.6. Also, the “Ratio rCT/rAmylin binding” value on rat amylin receptor is listed as 6.4.

For the compound `CC[C@H](C)[C@H](NC(=O)[C@H](C)NC(=O)CNC(=O)[C@H](Cc1ccccc1)NC(=O)[C@H](CC(N)=O)NC(=O)[C@@H]1CCCN1C(=O)[C@H](CO)NC(=O)[C@H](CO)NC(=O)[C@H](Cc1c[nH]cn1)NC(=O)[C@H](CCCNC(=N)N)NC(=O)[C@H](CC(C)C)NC(=O)[C@H](Cc1ccccc1)NC(=O)[C@H](Cc1c[nH]cn1)NC(=O)[C@H](C)NC(=O)[C@H](CC(C)C)NC(=O)[C@H](CCCNC(=N)N)NC(=O)[C@H](CCC(N)=O)NC(=O)[C@@H](NC(=O)[C@H](C)NC(=O)[C@@H]1CSSC[C@H](NC(=O)[C@@H](N)CCCCNC(=O)CC[C@H](NC(=O)CCCCCCCCCCCCCCCCCCC(=O)O)C(=O)O)C(=O)N[C@@H](CC(N)=O)C(=O)N[C@@H]([C@@H](C)O)C(=O)N[C@@H](C)C(=O)N[C@@H]([C@@H](C)O)C(=O)N1)[C@@H](C)O)C(=O)N1CCC[C@H]1C(=O)N[C@@H](CO)C(=O)N[C@@H](CO)C(=O)N[C@H](C(=O)N[C@@H](CC(N)=O)C(=O)N[C@H](C(=O)NCC(=O)N1CCC[C@H]1C(=O)N[C@@H](CC(N)=O)C(=O)N[C@H](C(=O)N1CCC[C@H]1C(N)=O)[C@@H](C)O)C(C)C)[C@@H](C)O` [Example 115] (H-K([γGlu-C20 diacid])CNTATCATQRLAHFLRHSSPNFGAIPSSTNVGPNTP-NH2; disulfide 2-7 (inferred); N-terminus and C-terminus assumed), the “Ratio hCT/hAmylin funct.” value in assay [1] (setting [2]) worked out at 0.8. The “Ratio hCT/hAmylin binding” value on human amylin receptor was 1.2. Also, the “Ratio rCT/rAmylin binding” value on rat amylin receptor is recorded as 3.0.

Consider `CC[C@H](C)[C@H](NC(=O)[C@H](C)NC(=O)CNC(=O)[C@H](Cc1ccccc1)NC(=O)[C@H](CC(N)=O)NC(=O)[C@@H]1CCCN1C(=O)[C@H](CO)NC(=O)[C@H](CO)NC(=O)[C@H](Cc1c[nH]cn1)NC(=O)[C@H](CCCNC(=N)N)NC(=O)[C@H](CC(C)C)NC(=O)[C@H](Cc1ccccc1)NC(=O)[C@H](CC(=O)O)NC(=O)[C@H](C)NC(=O)[C@H](CC(C)C)NC(=O)[C@H](CCCNC(=N)N)NC(=O)[C@H](CCC(N)=O)NC(=O)[C@@H](NC(=O)[C@H](C)NC(=O)[C@@H]1CSSC[C@H](NC(=O)[C@@H](N)CCCCNC(=O)CC[C@H](NC(=O)CCCCCCCCCCCCCCCCCCC(=O)O)C(=O)O)C(=O)N[C@@H](CC(N)=O)C(=O)N[C@@H]([C@@H](C)O)C(=O)N[C@@H](C)C(=O)N[C@@H]([C@@H](C)O)C(=O)N1)[C@@H](C)O)C(=O)N1CCC[C@H]1C(=O)N[C@@H](CO)C(=O)N[C@@H](CO)C(=O)N[C@H](C(=O)N[C@@H](CC(N)=O)C(=O)N[C@H](C(=O)NCC(=O)N1CCC[C@H]1C(=O)N[C@@H](CCC(=O)O)C(=O)N[C@H](C(=O)N[C@@H](Cc1ccc(O)cc1)C(N)=O)[C@@H](C)O)C(C)C)[C@@H](C)O` [Example 123] (H-K([γGlu-C20 diacid])CNTATCATQRLADFLRHSSPNFGAIPSSTNVGPETY-NH2; disulfide 2-7 (inferred); N-terminus and C-terminus assumed), for which the “Ratio hCT/hAmylin funct.” value in assay [1] (setting [2]) is 3.9. The “Ratio rCT/rAmylin binding” value at rat amylin receptor (Table 7b) and at rat amylin receptor was 62.0 throughout.
